Measured values published in the supplement of paper PMC10307832.

Experiments:
Assay in all cases: relative viability (nuclei count vs DMSO), 5 days (fraction); higher = more cells survive
XMD8-85 + Pemetrexed = compound: CN1CCN(CC1)C2=CC(=C(C=C2)NC3=NC=C4C(=N3)N(C5=CC=CC=C5C(=O)N4C)C)OC [XMD8-85] + Nc1nc2[nH]cc(CCc3ccc(C(=O)N[C@@H](CCC(=O)O)C(=O)O)cc3)c2c(=O)[nH]1 [Pemetrexed] (partner 0.2 µM)
Outline: (§1)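 Lung cancer cell lines in 1536-well plates got either a single drug or a fixed anchor-drug dose together with five library-drug doses (not always all listed) in √10 steps, by pin tool, on the day after seeding. Nuclei were counted after 5 days, and relative viability is the treated-to-vehicle ratio of nuclei counts. Values are medians of duplicate plates.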

4EGI-1 + Trametinib = compound: O=C(O)C(Cc1ccccc1[N+](=O)[O-])=NNc1nc(-c2ccc(Cl)c(Cl)c2)cs1 (mixture of isomers) [4EGI-1] + CC(=O)Nc1cccc(-n2c(=O)n(C3CC3)c(=O)c3c(Nc4ccc(I)cc4F)n(C)c(=O)c(C)c32)c1 [Trametinib] (partner 0.02 µM)
Outline: as §1

4EGI-1 + Pemetrexed = compound: O=C(O)C(Cc1ccccc1[N+](=O)[O-])=NNc1nc(-c2ccc(Cl)c(Cl)c2)cs1 (mixture of isomers) [4EGI-1] + Nc1nc2[nH]cc(CCc3ccc(C(=O)N[C@@H](CCC(=O)O)C(=O)O)cc3)c2c(=O)[nH]1 [Pemetrexed] (partner 0.2 µM)
Outline: as §1

4EGI-1 + Foretinib = compound: O=C(O)C(Cc1ccccc1[N+](=O)[O-])=NNc1nc(-c2ccc(Cl)c(Cl)c2)cs1 (mixture of isomers) [4EGI-1] + COc1cc2c(Oc3ccc(NC(=O)C4(C(=O)Nc5ccc(F)cc5)CC4)cc3F)ccnc2cc1OCCCN1CCOCC1 [Foretinib] (partner 0.25 µM)
Outline: as §1

| Cell Line | relative viability (XMD8-85 + Pemetrexed; first compound 0.08 µM) | relative viability (XMD8-85 + Pemetrexed; first compound 0.253 µM) | relative viability (XMD8-85 + Pemetrexed; first compound 0.8 µM) | relative viability (XMD8-85 + Pemetrexed; first compound 2.53 µM) | relative viability (XMD8-85 + Pemetrexed; first compound 8 µM) | relative viability (4EGI-1 + Trametinib; first compound 0.5 µM) | relative viability (4EGI-1 + Trametinib; first compound 1.581 µM) | relative viability (4EGI-1 + Trametinib; first compound 5 µM) | relative viability (4EGI-1 + Trametinib; first compound 15.81 µM) | relative viability (4EGI-1 + Trametinib; first compound 50 µM) | relative viability (4EGI-1 + Pemetrexed; first compound 0.5 µM) | relative viability (4EGI-1 + Pemetrexed; first compound 1.581 µM) | relative viability (4EGI-1 + Pemetrexed; first compound 5 µM) | relative viability (4EGI-1 + Pemetrexed; first compound 15.81 µM) | relative viability (4EGI-1 + Pemetrexed; first compound 50 µM) | relative viability (4EGI-1 + Foretinib; first compound 0.5 µM) | relative viability (4EGI-1 + Foretinib; first compound 5 µM) | relative viability (4EGI-1 + Foretinib; first compound 15.81 µM) | relative viability (4EGI-1 + Foretinib; first compound 50 µM) | relative viability (4EGI-1 + Foretinib; first compound 1.581 µM) |
| --- | --- | --- | --- | --- | --- | --- | --- | --- | --- | --- | --- | --- | --- | --- | --- | --- | --- | --- | --- | --- |
| HCC-44 | 0.65 | 0.701 | 0.647 | 0.597 | 0.632 | 1.04 | 0.948 | 0.994 | 0.921 | 0.507 | 0.609 | 0.634 | 0.549 | 0.584 | 0.593 | – | – | – | – | – |
| HCC-78 | 0.915 | 0.892 | 0.906 | 0.95 | 0.855 | 1.18 | – | 0.733 | 0.674 | 0.788 | 0.911 | – | 0.916 | 0.892 | 0.972 | 0.636 | 0.547 | 0.416 | 0.525 | – |
| HCC-366 | 0.147 | 0.163 | 0.146 | 0.129 | 0.168 | 0.454 | 0.272 | 0.429 | 0.262 | 0.0891 | 0.154 | 0.18 | 0.184 | 0.147 | 0.111 | 0.972 | 0.905 | 0.985 | 0.308 | 0.701 |
| HCC-827 | 0.284 | 0.251 | 0.266 | 0.254 | 0.301 | 0.575 | 0.458 | 0.611 | – | 0.505 | 0.27 | 0.232 | 0.269 | – | 0.228 | 1.07 | 1.05 | – | 0.339 | 0.889 |
| HOP-62 | 0.307 | 0.358 | 0.349 | 0.251 | 0.247 | 0.415 | 0.356 | 0.329 | 0.28 | 0.234 | 0.342 | 0.389 | 0.362 | 0.311 | 0.318 | 1.17 | 1.1 | 1.17 | 0.656 | 0.716 |
| IA-LM | – | – | – | – | – | – | – | – | – | – | – | – | – | – | – | 1.25 | 0.966 | 0.663 | 0.0865 | 1.04 |
| LC-2-ad | 0.261 | 0.26 | 0.253 | 0.274 | 0.249 | 0.919 | 0.886 | 0.855 | 0.843 | 0.595 | 0.301 | 0.28 | 0.287 | 0.258 | 0.257 | 0.997 | 1.02 | 0.485 | 0.283 | – |
| LCLC-97TM1 | 0.153 | 0.17 | 0.211 | 0.181 | 0.189 | 0.212 | – | 0.188 | 0.197 | 0.127 | 0.181 | – | 0.195 | 0.165 | 0.114 | 0.926 | 0.941 | 0.936 | 0.127 | 0.725 |
| LCLC-103H | 0.426 | 0.452 | 0.401 | 0.432 | 0.398 | 0.684 | 0.634 | 0.626 | 0.581 | 0.465 | 0.443 | 0.409 | 0.474 | 0.435 | 0.477 | 0.791 | 0.764 | 0.733 | 0.367 | 0.675 |
| LK-2 | 0.322 | 0.289 | 0.282 | 0.212 | 0.173 | 0.841 | 0.529 | 0.944 | 0.75 | 0.609 | 0.303 | – | 0.336 | 0.289 | 0.179 | 1.23 | 1.36 | 1.42 | 0.929 | – |
| LOU-NH91 | 0.281 | 0.333 | 0.311 | 0.295 | 0.378 | 0.812 | – | 0.764 | 0.704 | 0.724 | 0.431 | – | 0.387 | 0.435 | 0.481 | 0.944 | 0.995 | 0.545 | 0.906 | – |
| NCI-H522 | 0.762 | 0.916 | 1.01 | 1.08 | 0.825 | 0.787 | 0.681 | 0.847 | 0.859 | 0.677 | 0.948 | 0.981 | 1.07 | 1.06 | 0.718 | – | – | – | – | – |
| NCI-H727 | – | – | – | – | – | 0.365 | 0.398 | 0.377 | 0.386 | 0.376 | – | – | – | – | – | 1.07 | 0.767 | 1.19 | 0.324 | 1.07 |
| NCI-H1299 | – | – | – | – | – | – | – | – | – | – | – | – | – | – | – | 1.08 | 1.11 | 1.09 | 1.06 | 1.11 |
| NCI-H1563 | 0.718 | 0.809 | 0.67 | 0.778 | 0.631 | – | – | – | – | – | 0.905 | 0.221 | 0.968 | 0.747 | 0.81 | 0.915 | 0.962 | 0.789 | 0.557 | 0.853 |
| NCI-H1623 | – | – | – | – | – | – | – | – | – | – | – | – | – | – | – | 0.889 | 0.941 | 0.584 | 0.707 | 0.608 |
| NCI-H1648 | – | 0.693 | 0.826 | 0.765 | 0.692 | 0.574 | 0.506 | 0.471 | 0.526 | 0.304 | 0.728 | 0.782 | 0.745 | 0.643 | 0.689 | – | – | – | – | – |
| NCI-H1703 | – | – | – | – | – | – | – | – | – | – | – | – | – | – | – | 0.38 | 0.348 | 0.349 | 0.326 | 0.373 |
